Structures can show the parent of a compound that is named as a salt.
Key:
Assay type in all cases: in vivo
[1] = system: Botrytis cinerea; assay: Example 7: efficacy against Botrytis cinerea on gherkin plants, Compound 1 and benalaxyl; details: grading 5 to 7 days after contamination
Experimental: (§1) The active ingredients tested are prepared by potter homogenisation in a mixture of acetone/tween/water. This suspension is then diluted with water to obtain the desired active material concentration.
(§2) Gherkin plants (Petit vert de Paris variety) in starter cups, sown on a 50/50 peat soil-pozzolana substrate and grown at 18-20° C., are treated at the cotyledon Z11 stage by spraying with the aqueous suspension described above. Plants, used as controls, are treated with an aqueous solution not containing the active material.
(§3) After 24 hours, the plants are contaminated by depositing drops of an aqueous suspension of Botrytis cinerea spores (150,000 spores per ml) on upper surface of the leaves. The spores are collected from a 15-day-old culture and are suspended in a nutrient solution composed of: • 20 g/L of gelatine • 50 g/L of cane sugar • 2 g/L of NH4NO3 • 1 g/L of KH2PO4
(§4) The contaminated gherkin plants are settled for 5/7 days in a climatic room at 15-11° C. (day/night) and at 80% relative humidity. Grading (% of efficacy) is carried out 5 to 7 days after the contamination, in comparison with the control plants.

[2] = system: Puccinia recondita; assay: Example 3: efficacy against Puccinia recondita on wheat plants, Compound 1 and captan; details: 240 h, grading 10 days after contamination
Experimental: as §1
Wheat plants (Scipion variety) in starter cups, sown on 50/50 peat soil-pozzolana substrate and grown at 12° C., are treated at the 1-leaf stage (10 cm tall) by spraying with the aqueous suspension described above.
(§5) Plants, used as controls, are treated with an aqueous solution not containing the active material.
After 24 hours, the plants are contaminated by spraying the leaves with an aqueous suspension of Puccinia recondita spores (100,000 spores per ml). The spores are collected from a 10-day-old contaminated wheat and are suspended in water containing 2.5 ml/l of tween 80 10%. The contaminated wheat plants are incubated for 24 hours at 20° C. and at 100% relative humidity, and then for 10 days at 20° C. and at 70% relative humidity. Grading is carried out 10 days after the contamination, in comparison with the control plants.

[3] = system: Erysiphe graminis f. sp. tritici; assay: Example 14: efficacy against Erysiphe graminis f. sp. tritici on wheat plants, Compound 1 and chlorothalonil; details: Blumeria graminis, grading 7 to 14 days after contamination
Experimental: The formulated compounds are diluted with water to obtain the desired active material concentration
Wheat plants (Audace variety) in starter cups, sown on 50/50 peat soil-pozzolana substrate and grown at 12° C., are treated at the 1-leaf stage (10 cm tall) by spraying with the aqueous suspension described above.
as §5
After 24 hours, the plants are contaminated by dusting them with Erysiphe graminis f. sp. tritici spores, the dusting being carried out using diseased plants.
Grading is carried out 7 to 14 days after the contamination, in comparison with the control plants.

[4] = system: Botrytis cinerea; assay: Example 8: efficacy against Botrytis cinerea on gherkin plants, Compound 1 and metalaxyl-M; details: grading 5 to 7 days after contamination
Experimental: as §1, §2, §3, §4

[5] = system: Botrytis cinerea; assay: Example 10: efficacy against Botrytis cinerea on gherkin plants, Compound 1 and fosetyl-Al; details: grading 5 to 7 days after contamination
Experimental: (§6) The formulated compounds are diluted with water to obtain the desired active material concentration.
as §2, §3, §4

[6] = system: Botrytis cinerea; assay: Example 9: efficacy against Botrytis cinerea on gherkin plants, Compound 1 and propamocarb-HCl; details: grading 5 to 7 days after contamination
Experimental: (§7) Gherkin plants (Petit vert de Paris variety) in starter cups, sown on a 50/50 peat soil-pozzolana substrate and grown at 18-20° C., are treated at the cotyledon Z11 stage by spraying with the aqueous suspension described above.
as §3, §4

[7] = system: Sphaerotheca fuliginea; assay: Example 11: efficacy against Sphaerotheca fuliginea on gherkin plants, Compound 1 and tolylfluanid; details: Podosphaera fuliginea, 504 h, grading 21 days after contamination
Experimental: as §6
as §2, with “(Vert petit” for “(Petit vert”, “20° C./23°” for “18-20°”, “2-leaves” for “cotyledon Z11”
After 24 hours, the plants are contaminated by spraying them with an aqueous suspension of Sphaerotheca fuliginea spores (100,000 spores per ml). The spores are collected from a contaminated plants The contaminated gerkhin plants are incubated at about 20° C./25° C. and at 60/70% relative humidity.
(§8) Grading (% of efficacy) is carried out 21 days after the contamination, in comparison with the control plants.

[8] = system: Botrytis cinerea; assay: Example 6: efficacy against Botrytis cinerea on gherkin plants, Compound 1 and fludioxonil
Experimental: as §1, §2, §3, §4

[9] = system: Peronospora parasitica; assay: Example 12: efficacy against Peronospora parasitica on cabbage plants, Compound 1 and Compound A; details: Hyaloperonospora parasitica, 120 h, grading 5 days after contamination
Experimental: The active ingredient tested is prepared by potter homogenisation in a concentrated suspension type formulation at 100 g/l. This suspension is then diluted with water to obtain the desired active material concentration.
Cabbage plants (Eminence variety) in starter cups, sown on a 50/50 peat soil-pozzolana substrate and grown at 18-20° C., are treated at the cotyledon stage by spraying with the aqueous suspension described above.
as §5
After 24 hours, the plants are contaminated by spraying them with an aqueous suspension of Peronospora parasitica spores (50,000 spores per ml). The spores are collected from infected plant.
The contaminated cabbage plants are incubated for 5 days at 20° C., under a humid atmosphere.
Grading is carried out 5 days after the contamination, in comparison with the control plants.

[10] = system: Botrytis cinerea; assay: Example 2: efficacy against Botrytis cinerea on gherkin plants, Compound 1 and propineb; details: grading 5 to 7 days after contamination
Experimental: as §7, §3, §4

[11] = system: Sphaerotheca fuliginea; assay: Example 13: efficacy against Sphaerotheca fuliginea on gherkin plants, Compound 1 and iprovalicarb; details: grading 21 days after contamination
Experimental: Gherkin plants (Vert petit de Paris variety) in starter cups, sown on a 50/50 peat soil-pozzolana substrate and grown at 20° C./23° C., are treated at the 2-leaves stage by spraying with the aqueous suspension described above.
After 24 hours, the plants are contaminated by spraying them with an aqueous suspension of Sphaerotheca fuliginea spores (100 000 spores per ml). The spores are collected from a contaminated plants The contaminated gerkhin plants are incubated at about 20° C./25° C. and at 60/70% relative humidity.
as §8

[12] = system: Botrytis cinerea; assay: Example 1: efficacy against Botrytis cinerea on gherkin plants, Compound 1 and mancozeb; details: grading 5 to 7 days after contamination
Experimental: as §7, §3, §4

[13] = system: Botrytis cinerea; assay: Example 4: efficacy against Botrytis cinerea on gherkin plants, Compound 1 and folpet; details: grading 5 to 7 days after contamination
Experimental: as §2, with “The formulated compounds are diluted with water to obtain the desired active material concentration. Gherkin” for “Gherkin”
as §3, §4

[14] = system: Botrytis cinerea; assay: Example 5: efficacy against Botrytis cinerea on gherkin plants, Compound 1 and iprodione; details: grading 5 to 7 days after contamination
Experimental: as §2, with “The formulated compounds are diluted with water to obtain the desired active material concentration. Gherkin” for “Gherkin”
as §3, §4

COC(=O)C(C)N(C(=O)Cc1ccccc1)c1c(C)cccc1C (stereo not drawn) [Benalaxyl, benalaxyl, reference compound]
Emax at 111 ppm ([1]; 111 ppm): 7%

O=C1C2CC=CCC2C(=O)N1SC(Cl)(Cl)Cl (stereo not drawn) [Captan, captan]
Emax at 125 ppm [2]: 0%
Emax at 250 ppm [2]: 0%
Emax at 500 ppm ([2]; 500 ppm): 10%

N#Cc1c(Cl)c(Cl)c(Cl)c(C#N)c1Cl [Chlorothalonil, chlorothalonil, reference compound]
Emax at 250 g/ha [3]: 0%

O=C(NCCc1ncc(C(F)(F)F)cc1Cl)c1ccccc1C(F)(F)F [Compound 1, N-{2-[3-chloro-5-(trifluoromethyl)-2-pyridinyl]ethyl}-2-trifluoromethylbenzamide]
Emax at 37 ppm ([4]; Botrytis cinerea, 37 ppm): 45%
Emax at 111 ppm ([5]; Botrytis cinerea, 111 ppm): 70%
Emax at 111 ppm ([6]; 111 ppm): 70%
Emax at 4.1 ppm ([7]; 4.1 ppm): 69%
Emax at 12.3 ppm ([8]; 12.3 ppm, gherkin plants, grading 5 to 7 days after contamination): 0%
Emax at 37 ppm ([8]; 37 ppm, gherkin plants, grading 5 to 7 days after contamination): 38%
Emax at 12.3 ppm [9]: 0%
Emax at 125 ppm [2]: 0%
Emax at 250 ppm [2]: 10%
Emax at 37 ppm ([10]; Botrytis cinerea, 37 ppm): 65%
Emax at 111 ppm ([10]; Botrytis cinerea, 111 ppm): 87%
Emax at 12.3 ppm ([11]; Podosphaera fuliginea, 504 h, 12.3 ppm): 65%
Emax at 37 ppm ([1]; 37 ppm): 78%
Emax at 250 g/ha [3]: 30%
Emax at 500 g/ha ([3]; 500 g/ha): 60%
Emax at 37 ppm ([12]; Botrytis cinerea, 37 ppm): 50%
Emax at 111 ppm ([12]; Botrytis cinerea, 111 ppm): 70%
Emax at 37 ppm ([13]; 37 ppm): 50%
Emax at 111 ppm ([13]; 111 ppm): 70%
Emax at 37 ppm [14]: 0%

O=C(NCc1ncc(C(F)(F)F)cc1Cl)c1c(Cl)cccc1Cl [Compound A, 2,6-dichloro-N-{[3-chloro-5-(tri-fluoromethyl)-2-pyridinyl]methyl}benzamide, reference compound]
Emax at 12.3 ppm [9]: 40%

N#Cc1c[nH]cc1-c1cccc2c1OC(F)(F)O2 [Fludioxonil, fludioxonil, reference compound]
Emax at 4.1 ppm ([8]; read-out: % Efficacy): 0%

O=C1c2ccccc2C(=O)N1SC(Cl)(Cl)Cl [Folpet, folpet, reference compound]
Emax at 333 ppm ([13]; 333 ppm): 0%
Emax at 1000 ppm ([13]; 1000 ppm): 0%

CCO[PH](=O)O [Fosetyl-Al, fosetyl-Al, reference compound]
% Efficacy ([5]; 1000 ppm): 0%

CC(C)NC(=O)N1CC(=O)N(c2cc(Cl)cc(Cl)c2)C1=O [Iprodione, iprodione]
Emax at 37 ppm [14]: 0%
Emax at 111 ppm ([14]; 111 ppm): 90%

Cc1ccc(C(C)NC(=O)[C@@H](NC(=O)OC(C)C)C(C)C)cc1 (stereo partly drawn) [Iprovalicarb, iprovalicarb, reference compound]
% Efficacy ([11]; 111 ppm): 50%

COCC(=O)N(c1c(C)cccc1C)[C@H](C)C(=O)OC [Metalaxyl-M, metalaxyl-M, reference compound]
% Efficacy ([4]; 111 ppm): 0%

CCCOC(=O)NCCCN(C)C [Popamocarb-HCl, propamocarb-HCl, reference compound]
Emax at 1000 ppm ([6]; 1000 ppm): 0%

Cc1ccc(N(SC(F)(Cl)Cl)S(=O)(=O)N(C)C)cc1 [Tolylfluanid, tolylfluanid]
Emax at 12.3 ppm ([7]; 12.3 ppm): 0%
Emax at 37 ppm ([7]; 37 ppm): 50%

mancozeb [reference compound]
% Efficacy ([12]; 1000 ppm): 0%

propineb [reference compound]
% Efficacy ([10]; 3000 ppm): 0%
